Data as given in patent US20260364215A1, “Radiopharmaceutical Compositions Targeting Ephrin Type-A Receptor 2 and Uses Thereof” (PeptiDream Inc., priority 2022, published 2026).
Read-outs that look alike come from different tables or passages of the source. Numbered stars: 1 amine (or outer) side, 2 acyl side, 3 side chain; on linkers, the order of the positions; unused ones are H or OH. Bridge positions count the residues as written; N and C are the ends. Square brackets hold non-standard residues; d marks the D form. Side chains are listed from the residue outwards. Peptide text beside a SMILES is read from it. * marks the point of attachment. DOTA(Lu) = O=C1CN2CCN3CCN(CC(=O)*)CCN(CC2)CC(=O)[O][Lu]([O]1)[O]C(=O)C3; NH(1-deoxy-D-glucityl) = OC[C@@H](O)[C@@H](O)[C@H](O)[C@@H](O)CN*; X4 = CC(C)(C)C[C@H](CNCCCC[C@H](N[*:1])C(=O)[*:2])N[*:3]; DOTA = O=C(O)CN1CCN(CC(=O)O)CCN(CC(=O)*)CCN(CC(=O)O)CC1; Trp(1-Me,7-Cl) = Cn1cc(C[C@H](N)C(=O)O)c2cccc(Cl)c21; dPhe(3-CONH2) = NC(=O)c1cccc(C[C@@H](N)C(=O)O)c1; Piperazinyl(4-CH2COOH) = O=C(O)CN1CCN(*)CC1; Trp(1-Me) = Cn1cc(C[C@H](N)C(=O)O)c2ccccc21; PEG8 = NCCOCCOCCOCCOCCOCCOCCOCCOCCC(=O)O; NMe3Pal = CN[C@@H](Cc1cccnc1)C(=O)O; NMeF = CN[C@@H](Cc1ccccc1)C(=O)O; hCit = NC(=O)NCCCC[C@H](N)C(=O)O; Gly(cBu) = N[C@H](C(=O)O)C1CCC1; NMeE = CN[C@@H](CCC(=O)O)C(=O)O; Aad = N[C@@H](CCCC(=O)O)C(=O)O; Cit = NC(=O)NCCC[C@H](N)C(=O)O; NMeN = CN[C@@H](CC(N)=O)C(=O)O; PEG2 = NCCOCCOCCC(=O)O; CO = O=C([*:1])[*:2]; βAla = NCCC(=O)O

Target: T1, Recombinant Human EphA2 Fc Protein (Homo sapiens, UniProt P29317)
T1 construct: purchased Elabscience
T1 sequence (P29317 24-534 limits assumed): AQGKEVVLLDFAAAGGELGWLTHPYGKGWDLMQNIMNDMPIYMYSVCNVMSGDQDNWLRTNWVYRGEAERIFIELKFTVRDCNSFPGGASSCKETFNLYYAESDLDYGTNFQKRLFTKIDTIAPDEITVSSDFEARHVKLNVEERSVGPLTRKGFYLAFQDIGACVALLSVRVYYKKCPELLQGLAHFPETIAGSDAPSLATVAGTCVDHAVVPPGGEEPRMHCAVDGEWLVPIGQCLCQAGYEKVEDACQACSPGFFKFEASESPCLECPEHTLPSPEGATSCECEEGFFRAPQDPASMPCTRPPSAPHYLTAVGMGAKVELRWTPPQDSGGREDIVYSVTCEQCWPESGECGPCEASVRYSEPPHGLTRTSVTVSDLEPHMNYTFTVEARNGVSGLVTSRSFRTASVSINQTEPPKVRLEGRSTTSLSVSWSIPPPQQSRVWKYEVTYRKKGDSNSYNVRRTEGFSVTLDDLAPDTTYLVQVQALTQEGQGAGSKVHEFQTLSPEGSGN
Assay: Interaction analysis (kinetics, KD) of peptides and conjugates against EphA2 by SPR, Biacore T200, single-cycle kinetics (Examples B15 and B22)
Assay type: binding
Experimental: Example B15. Interaction Analysis by SPR was Performed Using Biacore (Cytiva)
SPR assay was performed using Biacore T200 (Cytiva).
The HBS-P+ buffer (10 mM HEPES (pH7.4), 150 mM NaCl, 0.05% (v/v) Surfactant P20) containing 1% DMSO was used as running buffer. Recombinant Human EphA2 Fc Protein (Fc tag, Elabscience) was captured by Human Antibody Capture kit (Cytiva). Peptide samples in DMSO were diluted with running buffer, and prepared five serial dilutions. Using these serial dilutions, kinetics of peptides against EphA2 was measured at a flow rate of […] at 25 °C. The method adopted for sample measurement was a single-cycle kinetics method. The analysis was conducted using the evaluation software 3.0 provided with Biacore T200. Kinetics fitting was done on the difference data obtained by subtracting the baseline data from sample measurement data. KD values were calculated based on the association rate constant (ka) and dissociation rate constant (kd).
Example B22: Interaction Analysis of Conjugates by SPR was Performed Using Biacore (Cytiva)
SPR assay was performed using Biacore T200 (Cytiva) according to Example B15.

[1] = conjugates, Biacore T200 according to Example B15, Table B16, read-out: SPR Kd

SMILES | Kd [1] [nM] | Kd [nM]
CC(C)C[C@@H]1NC(=O)[C@H](CC(N)=O)NC(=O)[C@H](Cc2cccnc2)N(C)C(=O)[C@@H](C)NC(=O)CSC[C@@H](C(=O)NCCC(=O)N[C@H](CCCCNC(=O)CCOCCOCCNC(=O)CCOCCOCCOCCOCCOCCOCCOCCOCCNC(=O)CN2CCN(CC(=O)O)CCN(CC(=O)O)CCN(CC(=O)O)CC2)C(N)=O)NC(=O)[C@H](CCCC(N)=O)NC(=O)[C@H]([C@@H](C)O)NC(=O)[C@H](Cc2cn(C)c3ccccc23)NC(=O)[C@H](CCCCNC(=O)N2CCN(CC(=O)O)CC2)NC(=O)[C@H](Cc2cn(C)c3ccccc23)NC(=O)[C@H](Cc2ccccc2)N(C)C(=O)[C@H](CCCC(N)=O)NC1=O.[Lu+3] [PDC_EphA2-00008093-C304] ({CH2CO}-[dA][NMe3Pal]NL[Aad](NH2)[NMeF][Trp(1-Me)]K([CO-Piperazinyl(4-CH2COOH)])[Trp(1-Me)]T[Aad](NH2)C[βAla][dK]([PEG2-PEG8-DOTA])-NH2; thioether N-12) | < 1 | 
CC(C)C[C@@H]1NC(=O)[C@H](CC(N)=O)NC(=O)[C@H](Cc2cccnc2)N(C)C(=O)[C@@H](C)NC(=O)CSC[C@@H](C(N)=O)NC(=O)[C@H](CCCCNC(=O)CN2CCN3CCN4CCN(CC2)CC(=O)[O][Lu]([O]C(=O)C3)[O]C(=O)C4)NC(=O)[C@H]([C@@H](C)O)NC(=O)[C@H](Cc2cn(C)c3ccccc23)NC(=O)[C@H](CCCCNC(=O)N2CCN(CC(=O)O)CC2)NC(=O)[C@H](Cc2cn(C)c3c(Cl)cccc23)NC(=O)[C@H](CCC(=O)O)N(C)C(=O)[C@H](CCCC(N)=O)NC1=O [PDC_EphA2-00026633] ({CH2CO}-[dA][NMe3Pal]NL[Aad](NH2)[NMeE][Trp(1-Me,7-Cl)]K([CO-Piperazinyl(4-CH2COOH)])[Trp(1-Me)]TK(DOTA(Lu))C-NH2; thioether N-12) |  | < 1
CC(C)C[C@@H]1NC(=O)[C@H](CC(N)=O)NC(=O)[C@H](Cc2cccnc2)N(C)C(=O)[C@@H](Cc2cccc(C(N)=O)c2)NC(=O)CSC[C@@H](C(=O)N[C@@H](CCCCNC(=O)CN2CCN3CCN4CCN(CC2)CC(=O)[O][Lu]([O]C(=O)C3)[O]C(=O)C4)C(N)=O)NC(=O)[C@H](Cc2cn(C)c3ccccc23)NC(=O)[C@H](CCCCNC(N)=O)NC(=O)[C@H](Cc2cn(C)c3c(Cl)cccc23)NC(=O)[C@H](Cc2cccnc2)N(C)C(=O)[C@H](CO)NC1=O [PDC_EphA2-00026601-C301] ({CH2CO}-[dPhe(3-CONH2)][NMe3Pal]NLS[NMe3Pal][Trp(1-Me,7-Cl)][hCit][Trp(1-Me)]CK(DOTA(Lu))-NH2; thioether N-10) |  | < 1
C[C@@H](O)[C@@H]1NC(=O)[C@H](Cc2cn(C)c3ccccc23)NC(=O)[C@H](CCC(=O)NC[C@H](O)[C@@H](O)[C@H](O)[C@H](O)CO)NC(=O)[C@H](Cc2cn(C)c3c(Cl)cccc23)NC(=O)[C@H](Cc2cccnc2)N(C)C(=O)[C@H](CCCC(N)=O)NC(=O)[C@H](C2CCC2)NC(=O)[C@H](CC(N)=O)NC(=O)[C@H](Cc2cccnc2)N(C)C(=O)[C@@H](Cc2cccc(C(N)=O)c2)NC(=O)CSC[C@@H](C(=O)N[C@H](CCCCNC(=O)CN2CCN(CC(=O)O)CCN(CC(=O)O)CCN(CC(=O)O)CC2)C(=O)O)NC(=O)[C@H](CCCC(N)=O)NC1=O.[Lu+3] [PDC_EphA2-00026774] ({CH2CO}-[dPhe(3-CONH2)][NMe3Pal]N[Gly(cBu)][Aad](NH2)[NMe3Pal][Trp(1-Me,7-Cl)]E(NH(1-deoxy-D-glucityl))[Trp(1-Me)]T[Aad](NH2)C[dK](DOTA)-OH; thioether N-12) | < 1 | 
C[C@H]1NC(=O)CSC[C@@H](C(=O)N[C@H](CCCCNC(=O)CN2CCN(CC(=O)O)CCN(CC(=O)O)CCN(CC(=O)O)CC2)C(N)=O)NC(=O)[C@H](CCCC(N)=O)NC(=O)[C@H]([C@@H](C)O)NC(=O)[C@H](Cc2cn(C)c3ccccc23)NC(=O)[C@H](CCC(=O)NC[C@H](O)[C@@H](O)[C@H](O)[C@H](O)CO)NC(=O)[C@H](Cc2cn(C)c3ccccc23)NC(=O)[C@H](CC(N)=O)N(C)C(=O)[C@H](CCCC(N)=O)NC(=O)[C@H](C2CCC2)NC(=O)[C@H](CC(N)=O)NC(=O)[C@H](Cc2ccccc2)N(C)C1=O.[Lu+3] [PDC_EphA2-00013703-C302] ({CH2CO}-[dA][NMeF]N[Gly(cBu)][Aad](NH2)[NMeN][Trp(1-Me)]E(NH(1-deoxy-D-glucityl))[Trp(1-Me)]T[Aad](NH2)C[dK](DOTA)-NH2; thioether N-12) | < 1 | 
CC(C)C[C@@H]1NC(=O)[C@H](CC(N)=O)NC(=O)[C@H](Cc2cccnc2)N(C)C(=O)[C@@H](Cc2cccc(C(N)=O)c2)NC(=O)CSC[C@@H](C(N)=O)NC(=O)[C@H](CCCC(N)=O)NC(=O)[C@H]([C@@H](C)O)NC(=O)[C@H](Cc2cn(C)c3ccccc23)NC(=O)[C@H](CCC(=O)NC[C@H](O)[C@@H](O)[C@H](O)[C@H](O)CO)NC(=O)[C@H](Cc2cn(C)c3c(Cl)cccc23)NC(=O)[C@H](CC(N)=O)N(C)C(=O)[C@H](CCCCNC(=O)CN2CCN3CCN4CCN(CC2)CC(=O)[O][Lu]([O]C(=O)C3)[O]C(=O)C4)NC1=O [PDC_EphA2-00026714] ({CH2CO}-[dPhe(3-CONH2)][NMe3Pal]NLK(DOTA(Lu))[NMeN][Trp(1-Me,7-Cl)]E(NH(1-deoxy-D-glucityl))[Trp(1-Me)]T[Aad](NH2)C-NH2; thioether N-12) |  | < 1
CC(C)C[C@@H]1NC(=O)[C@H](CC(N)=O)NC(=O)[C@H](Cc2cccnc2)N(C)C(=O)[C@@H](Cc2cccc(C(N)=O)c2)NC(=O)CSC[C@@H](C(=O)N[C@H](CCCCNC(=O)CN2CCN3CCN4CCN(CC2)CC(=O)[O][Lu]([O]C(=O)C3)[O]C(=O)C4)C(N)=O)NC(=O)[C@H](CC(N)=O)NC(=O)[C@H]([C@@H](C)O)NC(=O)[C@H](Cc2cn(C)c3ccccc23)NC(=O)[C@H](CCCNC(N)=O)NC(=O)[C@H](Cc2cn(C)c3c(Cl)cccc23)NC(=O)[C@H](CC(N)=O)N(C)C(=O)[C@H](CC(N)=O)NC1=O [PDC_EphA2-00026426-C302] ({CH2CO}-[dPhe(3-CONH2)][NMe3Pal]NLN[NMeN][Trp(1-Me,7-Cl)][Cit][Trp(1-Me)]TNC[dK](DOTA(Lu))-NH2; thioether N-12) |  | < 1
CC(C)C[C@@H]1NC(=O)[C@H](CC(N)=O)NC(=O)[C@H](Cc2cccnc2)N(C)C(=O)[C@@H](Cc2cccc(C(N)=O)c2)NC(=O)CSC[C@@H](C(=O)N[C@H](CCCCNC(=O)CN2CCN(CC(=O)O)CCN(CC(=O)O)CCN(CC(=O)O)CC2)C(N)=O)NC(=O)[C@H](CC(N)=O)NC(=O)[C@H]([C@@H](C)O)NC(=O)[C@H](Cc2cn(C)c3ccccc23)NC(=O)[C@H](CCC(=O)NC[C@H](O)[C@@H](O)[C@H](O)[C@H](O)CO)NC(=O)[C@H](Cc2cn(C)c3c(Cl)cccc23)NC(=O)[C@H](CC(N)=O)N(C)C(=O)[C@H](CC(N)=O)NC1=O.[Lu+3] [PDC_EphA2-00026425-C302] ({CH2CO}-[dPhe(3-CONH2)][NMe3Pal]NLN[NMeN][Trp(1-Me,7-Cl)]E(NH(1-deoxy-D-glucityl))[Trp(1-Me)]TNC[dK](DOTA)-NH2; thioether N-12) | < 1 | 
C[C@H]1NC(=O)CSC[C@@H](C(N)=O)NC(=O)[C@H](CCCCNC[C@@H](CC(C)(C)C)NC(=O)CN2CCN3CCN4CCN(CC2)CC(=O)[O][Lu]([O]C(=O)C3)[O]C(=O)C4)NC(=O)[C@H]([C@@H](C)O)NC(=O)[C@H](Cc2cn(C)c3ccccc23)NC(=O)[C@H](CCCCNC(=O)N2CCN(CC(=O)O)CC2)NC(=O)[C@H](Cc2cn(C)c3ccccc23)NC(=O)[C@H](CCC(=O)O)N(C)C(=O)[C@H](CCCC(N)=O)NC(=O)[C@H](C2CCC2)NC(=O)[C@H](CC(N)=O)NC(=O)[C@H](Cc2cccnc2)N(C)C1=O [PDC_EphA2-00027131] ({CH2CO}-[dA][NMe3Pal]N[Gly(cBu)][Aad](NH2)[NMeE][Trp(1-Me)]K([CO-Piperazinyl(4-CH2COOH)])[Trp(1-Me)]T[X4](DOTA(Lu))C-NH2; thioether N-12) |  | < 1
CC(C)C[C@@H]1NC(=O)[C@H](CC(N)=O)NC(=O)[C@H](Cc2cccnc2)N(C)C(=O)[C@@H](C)NC(=O)CSC[C@@H](C(=O)N[C@H](CCCCNC(=O)CN(C)C(=O)CN(C)C(=O)CN(C)C(=O)CN(C)C(=O)CN(C)C(=O)CN(C)C(=O)CN(C)C(=O)CN(C)C(=O)CN(C)C(=O)CN(C)C(=O)CCNC(=O)CN2CCN3CCN4CCN(CC2)CC(=O)[O][Lu]([O]C(=O)C3)[O]C(=O)C4)C(N)=O)NC(=O)[C@H](CCCC(N)=O)NC(=O)[C@H]([C@@H](C)O)NC(=O)[C@H](Cc2cn(C)c3ccccc23)NC(=O)[C@H](CCCCNC(=O)N2CCN(CC(=O)O)CC2)NC(=O)[C@H](Cc2cn(C)c3ccccc23)NC(=O)C(CCC(=O)O)N(C)C(=O)[C@H](CCCC(N)=O)NC1=O (some centres unmarked) [PDC_EphA2-00007196-C310] |  | < 1
CC(C)C[C@@H]1NC(=O)[C@H](CC(N)=O)NC(=O)[C@H](Cc2cccnc2)N(C)C(=O)[C@@H](C)NC(=O)CSC[C@@H](C(=O)N[C@H](CCCCNC(=O)CN2CCN(CC(=O)O)CCN(CC(=O)O)CCN(CC(=O)O)CC2)C(N)=O)NC(=O)[C@H](CCCC(N)=O)NC(=O)[C@H]([C@@H](C)O)NC(=O)[C@H](Cc2cn(C)c3ccccc23)NC(=O)[C@H](CCCCNC(=O)N2CCN(CC(=O)O)CC2)NC(=O)[C@H](Cc2cn(C)c3ccccc23)NC(=O)[C@H](CCC(=O)O)N(C)C(=O)[C@H](CCCC(N)=O)NC1=O.[Lu+3] [PDC_EphA2-00026772] ({CH2CO}-[dA][NMe3Pal]NL[Aad](NH2)[NMeE][Trp(1-Me)]K([CO-Piperazinyl(4-CH2COOH)])[Trp(1-Me)]T[Aad](NH2)C[dK](DOTA)-NH2; thioether N-12) | < 1 | 
